For one data set, the target named is T1, Aβ1-42 (Homo sapiens, UniProt P05067).
T1 construct: Aβ1-42 lyophilized powder (Bachem) was reconstituted in hexafluoroisopropanol (HFIP) to 1 mM; purchased Bachem
Nature of the data set: Thioflavin T spectrofluorescence assay: inhibition of Aβ1-42 aggregation. It counts as biochemical. Conditions: Table 3; 10:1 small molecule to Aβ1-42 molar ratio, 24 h at 37° C.; mean ± SD of two independent experiments; read-out: % Inhibition. How it is done: The objective of this example was to evaluate the capacity of the compounds of the invention to inhibit the aggregation of (Aβ)1-42 peptide and to disaggregate pre-aggregated Aβ1-42 using a thioflavin T spectrofluorescence assay.
Aβ1-42 lyophilized powder (Bachem) was reconstituted in hexafluoroisopropanol (HFIP) to 1 mM. The peptide solution was sonicated for 15 min at room temperature, agitated overnight, and aliquots were placed into non-siliconized microcentrifuge tubes. The HFIP was then evaporated under a stream of argon. The resulting peptide film was dried under vacuum for 10 min, tightly sealed and stored at −80° C. until used.
Aβ1-42 peptide film was dissolved in DMSO to reach 400 μM. Assay solution in PBS was prepared in non-siliconized incubation tubes to reach the following concentrations: 330 μM small molecule, 33 μM Aβ1-42, 10 μM thioflavin T (ThT), and 12.8% DMSO. Therefore, the final molar ratio of small molecule to Aβ1-42 was 10:1. A positive control without a small molecule was prepared to measure maximum RFU. A negative control without Aβ1-42 was prepared for each small molecule. 3-aminopyrazole trimer (Trimer) was tested in all assays to ascertain reproducibility between independent experiments. The solutions were then incubated for 24 h at 37° C., and the spectrofluorescence (relative fluorescence units; RFU) read in six replicates in black 384-well assay plates (Perkin-Elmer) on a Perkin-Elmer FluoroCount spectrofluorometer. Inhibition of aggregation is expressed as mean % inhibition±1 standard deviation (SD) according to the following equation: […]

Counter-ions that a name gives are not always drawn.

In general, melting point refers to the temperature, or range, at which the solid turns liquid. For orientation: inhibition means the change of the read-out against control, counted positive when it falls.

T1 sequence (P05067 672-713 limits assumed): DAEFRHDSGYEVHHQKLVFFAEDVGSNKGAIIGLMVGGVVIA

The compound `FC(F)(F)c1cccc2[nH]nc(NCCNc3n[nH]c4cccc(C(F)(F)F)c34)c12` (as salt: hydrochloride) [Compound 1ai, N,N′-bis(4-(Trifluoromethyl)-1H-indazol-3-yl)ethane-1,2-diamine bishydrochloride] showed a melting point of 222 °C. `Fc1ccc(-c2cc(NCCNc3cc(-c4ccc(F)cc4)[nH]n3)n[nH]2)cc1` (as salt: hydrochloride) [Compound 1ak, N^1,N^2-bis(5-(4-Fluorophenyl)-1H-pyrazol-3-yl)ethane-1,2-diamine bishydrochloride] returned a melting point of 239 to 240 °C. `c1ccc(-c2cc(NCCNc3cc(-c4ccccn4)[nH]n3)n[nH]2)nc1` (as salt: hydrochloride) [Compound 1al, N^1,N^2-bis(5-(Pyridin-2-yl)-1H-pyrazol-3-yl)ethane-1,2-diamine tetra-hydrochloride]: the melting point was over 250 °C. As for `c1ccc(-c2ccc(-c3cc(NCCNc4cc(-c5ccc(-c6ccccc6)cc5)[nH]n4)n[nH]3)cc2)cc1` (as salt: hydrochloride) [Compound 1am, N^1-(5-(Biphenyl-4-yl)-1H-pyrazol-3-yl)-N^2-(3-(biphenyl-4-yl)-1H-pyrazol-5-yl)ethane-1,2-diamine bishydrochloride], the melting point was in the range of 220 to 222 °C. `Cc1ccc(-c2cc(NCC(C)(C)CNc3cc(-c4ccc(C)cc4)[nH]n3)n[nH]2)cc1` (as salt: hydrochloride) [Compound 1an, dihydrochloride]: the melting point was determined as 151 °C. `Cc1ccc(-c2cc(NCc3cccc(CNc4cc(-c5ccc(C)cc5)[nH]n4)c3)n[nH]2)cc1` (as salt: hydrochloride) [Compound 1ao, N,N′-(1,3-Phenylenebis(methylene))bis(5-p-tolyl-1H-pyrazol-3-amine) dihydrochloride]: the melting point came out at 183 °C. The same measure, in the same setting: as for `Cc1ccc(-c2cc(NCc3ccc(CNc4cc(-c5ccc(C)cc5)[nH]n4)cc3)n[nH]2)cc1` (as salt: hydrochloride) [Compound 1ap, N,N′-(1,4-Phenylenebis(methylene))bis(5-p-tolyl-1H-pyrazol-3-amine) dihydrochloride], the figure is 184 °C; as for `c1ccc(-c2cc(NCCNc3cc(-c4ccccc4)[nH]n3)n[nH]2)cc1` (as salt: hydrochloride) [Compound 1e, N^1,N^2-bis(5-Phenyl)-1H-pyrazol-3-yl)ethane-1,2-diamine bishydrochloride], 204 °C; as for `Clc1ccc(-c2cc(NCCNc3cc(-c4ccc(Cl)cc4)[nH]n3)n[nH]2)cc1` (as salt: hydrochloride) [Compound 1f, N^1,N^2-bis(5-(4-Chlorophenyl)-1H-pyrazol-3-yl)ethane-1,2-diamine bishydrochloride], 195 °C. As to `c1csc(-c2cc(NCCNc3cc(-c4cccs4)[nH]n3)n[nH]2)c1` (as salt: hydrochloride) [Compound 1h, N^1,N^2-bis(5-(2-Thienyl)-1H-pyrazol-3-yl)ethane-1,2-diamine bishydrochloride], the melting point was determined as 147 °C.

For `c1c(NCCNc2cc(C3CC3)[nH]n2)n[nH]c1C1CC1` (as salt: hydrochloride) [Compound 1i, N^1,N^2-bis(5-Cyclopropyl-1H-pyrazol-3-yl)ethane-1,2-diamine bishydrochloride], the melting point lay within 205 to 206 °C. For `c1ccc(Cc2cc(NCCNc3cc(Cc4ccccc4)[nH]n3)n[nH]2)cc1` (as salt: hydrochloride) [Compound 1l, N^1,N^2-bis(5-Benzyl-1H-pyrazol-3-yl)ethane-1,2-diamine dihydrochloride], the melting point lay in the range of 177 to 178 °C. On the same count and under the same terms, as for `c1coc(-c2cc(NCCNc3cc(-c4ccco4)[nH]n3)n[nH]2)c1` (as salt: hydrochloride) [Compound 1m, N^1,N^2-bis(5-(2-Furyl)-1H-pyrazol-3-yl)ethane-1,2-diamine bishydrochloride], the figure is 214 to 216 °C; as for `Clc1ccc(-c2c[nH]nc2NCCNc2n[nH]cc2-c2ccc(Cl)cc2)cc1` (as salt: hydrochloride) [Compound 1s, N^1,N^2-bis(4-(4-Chlorophenyl)-1H-pyrazol-3-yl)ethane-1,2-diamine bishydrochloride], 228 °C.

Regarding `c1[nH]nc(NCCNc2n[nH]cc2C2CC2)c1C1CC1` (as salt: hydrochloride) [Compound 1v, N^1,N^2-bis(4-Cyclopropyl-1H-pyrazol-3-yl)ethane-1,2-diamine bishydrochloride], the melting point was 178 to 182 °C (dec.). The compound `Cc1ccc(-c2cc(NCC(=O)Nc3cc(-c4cccs4)[nH]n3)n[nH]2)cc1` [Compound 1aa, N-(5-(Thiophen-2-yl)-1H-pyrazol-3-yl)-2-(5-p-tolyl-1H-pyrazol-3-ylamino)acetamide] yielded a melting point of 246 °C. In addition, the inhibition at 330 µM at Aβ1-42 came to 50.4 ± 0.9%. Regarding `Cc1ccc(-c2cc(NCC(=O)Nc3cc(-c4ccc(Cl)cc4)[nH]n3)n[nH]2)cc1` [Compound 1ac, N-(5-(4-Chlorophenyl)-1H-pyrazol-3-yl)-2-(5-p-tolyl-1H-pyrazol-3-ylamino)acetamide], the melting point turned out to be 257 °C. Besides, the inhibition at 330 µM at Aβ1-42 came to 12.4 ± 5.1%.

`Cc1ccc(-c2cc(NC(=O)CNc3cc(-c4ccc(Cl)cc4)[nH]n3)n[nH]2)cc1` [Compound 1ad, 2-(5-(4-Chlorophenyl)-1H-pyrazol-3-ylamino)-N-(5-p-tolyl-1H-pyrazol-3-yl)acetamide]: the melting point stood at 251 °C. Moreover, the inhibition at 330 µM on Aβ1-42 is 55 ± 11.9%. As to `O=C(CNc1cc(-c2cccs2)[nH]n1)Nc1cc(-c2ccc(Cl)cc2)[nH]n1` [Compound 1af, 2-(5-(Thiophen-2-yl)-1H-pyrazol-3-ylamino)-N-(5-(4-chlorophenyl)-1H-pyrazol-3-yl)acetamide], the melting point was 233 °C. Moreover, on Aβ1-42, the inhibition at 330 µM worked out at 37.6 ± 10.4%. For the compound `O=C(CNc1cc(-c2ccc(Cl)cc2)[nH]n1)Nc1cc(-c2cccs2)[nH]n1` [Compound 1ag, N-(5-(Thiophen-2-yl)-1H-pyrazol-3-yl)-2-(5-(4-chlorophenyl)-1H-pyrazol-3-ylamino)acetamide], the melting point is 257 °C. Besides, the inhibition at 330 µM on Aβ1-42 came to 20.8 ± 5.7%. In the same order, the values of `Cc1ccc(-c2cc(NCC(=O)Nc3cc(C)[nH]n3)n[nH]2)cc1` [Compound 1x, N-(5-Methyl-1H-pyrazol-3-yl)-2-(5-p-tolyl-1H-pyrazol-3-ylamino)acetamide] are 180 °C and 35.9 ± 4.7%.

`Cc1ccc(-c2cc(NCC(=O)Nc3cc(-c4ccc(C)cc4)[nH]n3)n[nH]2)cc1` [Compound 1y, N-(5-p-Tolyl-1H-pyrazol-3-yl)-2-(5-p-tolyl-1H-pyrazol-3-ylamino)acetamide] showed a melting point of 238 °C. Besides, the inhibition at 330 µM at Aβ1-42 was determined as 30.7 ± 3.8%. Take `Cc1ccc(-c2cc(NC(=O)CNc3cc(-c4cccs4)[nH]n3)n[nH]2)cc1` [Compound 1z, 2-(5-(Thiophen-2-yl)-1H-pyrazol-3-ylamino)-N-(5-p-tolyl-1H-pyrazol-3-yl)acetamide]: the melting point is 227 °C. Moreover, at Aβ1-42, the inhibition at 330 µM stood at 22.1 ± 12.5%.

Values taken from US20100144793A1, “NOVEL COMPOUNDS FOR THE TREATMENT OF DISEASES ASSOCIATED WITH AMYLOID OR AMYLOID-LIKE PROTEINS” (AC IMMUNE SA, priority 2006, published 2010).
